Consider nine substances from patent publication US8470963B2, “Multifunctional compounds for pharmaceutical purposes” (Sku Asset Management GmbH, priority 2006, dated 2013).

pKd: −log10 of the molar value.

One test deals with hepatoma cells. The test is described as follows: Hepatoma solid tumor model in strain 13 guinea pigs: tumor weight and macrophage infiltration. The class given is in vivo, guinea pig. The settings on record: compared to control Group 1 (PBS); for numbers of esterase-positive cells in tumors (macrophage infiltration): 1 mg per animal ip on day 5, sacrifice on day 15, non-specific esterase stain; for mean tumor weight: 1 mg per animal ip on day 5, tumors excised and weighed on day 15. As for the experimental part:
Hepatoma cells are propagated by ip (intraperitoneal) passage in weanling strain 13 male guinea pigs (NIH). Single-cell suspensions are prepared by enzymatic digestion as described. Strain 13 male guinea pigs are injected ip with a suspension of approx. 2*10^6 hepatoma cells to produce solid tumors (day 1). Animals are grouped into 4 groups (six animals each) and are given ip injections on day 5: Phosphate-buffered saline (PBS) (Group 1; control); 1 mg peptide NH2-AWYPLPP-COOH per animal (Group 2; binder only); 1 mg peptide fMLP-COOH per animal (Group 3; effector only); 1 mg compound fMLPK-(NH2-AWYPLPP)-GGGK-(NH2-AWYPLPP)-1-COOH per animal (Group 4). Animals are sacrificed on day 15 and tumors are excised and weighed. In addition macrophage infiltration of tumors is evaluated. Therefore, tumors are fixed in phosphate-buffered formalin and embedded in paraffin blocks. Sections (5 μm) are cut and stained for non-specific esterase activity. Esterase-positive cells are quantified with an image analyser (Optomax, Inc.).

For a further test, the target named is Her-2 (human ErbB-2) (Homo sapiens, UniProt P04626). The settings on record: target Her-2 (human ErbB-2); Karasseva et al, 2002; read-out: Affinity (kD); cited from earlier work.
Test [1] has as its system human neuroblastoma cells WAC 2; breast cancer cells MDA-MB-435. The settings on record: WAC 2 neuroblastoma cells; MDA-MB-435 breast cancer cells; Askoxylakis et al; read-out: Affinity (kD); cited from earlier work.
Test [2] concerns the target Glucose-regulated protein 78 (GRP78) (Homo sapiens, UniProt P11021). The settings on record: target GRP78; Arap et al, 2004; read-out: Affinity (kD); cited from earlier work.
The next test addresses FGF receptor. The settings on record: target FGF receptor; if multivalent; Maruta et al, 2002; read-out: Affinity (kD); cited from earlier work.
The target in a further test is EGFRvIII (Homo sapiens, UniProt P00533, DELINS30-297G). The settings on record: target EGFRvIII; Campa et al 2002; read-out: Affinity (kD); cited from earlier work.
For a further test, the target named is EGFR (Homo sapiens, UniProt P00533). Particulars: target EGFR; Li et al 2005; read-out: Affinity (kD); cited from earlier work.

Chain of Glucose-regulated protein 78 (GRP78) (P11021 19-654, species assumed): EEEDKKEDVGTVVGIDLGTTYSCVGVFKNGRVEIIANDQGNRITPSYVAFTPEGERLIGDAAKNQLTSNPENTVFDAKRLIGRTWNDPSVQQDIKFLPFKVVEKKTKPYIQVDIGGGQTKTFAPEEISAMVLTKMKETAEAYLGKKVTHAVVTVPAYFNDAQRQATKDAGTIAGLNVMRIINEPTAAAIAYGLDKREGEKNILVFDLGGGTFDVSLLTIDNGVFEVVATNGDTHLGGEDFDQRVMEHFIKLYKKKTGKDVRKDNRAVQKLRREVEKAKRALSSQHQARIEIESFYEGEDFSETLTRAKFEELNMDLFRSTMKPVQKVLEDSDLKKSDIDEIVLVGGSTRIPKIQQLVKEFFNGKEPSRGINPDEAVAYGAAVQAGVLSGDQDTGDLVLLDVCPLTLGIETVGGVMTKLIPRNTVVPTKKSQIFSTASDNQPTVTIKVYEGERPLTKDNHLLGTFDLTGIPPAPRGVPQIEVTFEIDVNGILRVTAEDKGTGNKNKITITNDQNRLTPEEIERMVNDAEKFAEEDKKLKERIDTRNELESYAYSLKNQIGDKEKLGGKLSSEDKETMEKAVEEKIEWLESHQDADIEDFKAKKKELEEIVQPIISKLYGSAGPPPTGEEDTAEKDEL

Consider “NH2-AWYPLPP-COOH (H-AWYPLPP-OH) [binder]”, for which, in the test with hepatoma cells, the “numbers of esterase-positive cells in tumors (macrophage infiltration)” value (shortened to “numbers of esterase-positive cells”) is on record as “comparable to Group 1” and the mean tumor weight entry was “no or only marginal effect”.
The pKd is −log10 of the Kd, conventionally taken in molar units. For the substance KCCYSL, the pKd on Her-2 (human ErbB-2) was 4.52.
VPWMEPAYQRFL: the negative logarithm of the Kd (pKd) in test [1] is 6.22.
As to fMLP-COOH [effector], in the test with hepatoma cells, the “numbers of esterase-positive cells” value is given as “slightly increased” and the mean tumor weight result is recorded as “no or only marginal effect”.
Consider WIFPWIQL, for which, in test [2], the pKd was 7.30 to 8.30.
For WDLAWMFRLPVG, the negative-log Kd (pKd) in test [2] was 7.30 to 8.30.
In the case of “fMLPK-(NH2-AWYPLPP)-GGGK-(NH2-AWYPLPP)-I-COOH [compound]”, in the test with hepatoma cells, the “numbers of esterase-positive cells” value is “significantly increased” and the mean tumor weight result is “significantly decreased”.
In the case of MQLPLAT, the pKd at FGF receptor was 9.60.
In the case of YHWYGYTPQNVI, the results for the pKd on EGFRvIII and on EGFR were 7.52 and 7.66, respectively.
